Four compounds from PMC11607896 (Biotechnology for Biofuels and Bioproducts, 2024) can be followed below.

Format in all cases: biochemical
Test [1] addresses T1, PcCel7D (Phanerodontia chrysosporium, UniProt Q7LIJ0).
T1 sequence (Q7LIJ0 19-510): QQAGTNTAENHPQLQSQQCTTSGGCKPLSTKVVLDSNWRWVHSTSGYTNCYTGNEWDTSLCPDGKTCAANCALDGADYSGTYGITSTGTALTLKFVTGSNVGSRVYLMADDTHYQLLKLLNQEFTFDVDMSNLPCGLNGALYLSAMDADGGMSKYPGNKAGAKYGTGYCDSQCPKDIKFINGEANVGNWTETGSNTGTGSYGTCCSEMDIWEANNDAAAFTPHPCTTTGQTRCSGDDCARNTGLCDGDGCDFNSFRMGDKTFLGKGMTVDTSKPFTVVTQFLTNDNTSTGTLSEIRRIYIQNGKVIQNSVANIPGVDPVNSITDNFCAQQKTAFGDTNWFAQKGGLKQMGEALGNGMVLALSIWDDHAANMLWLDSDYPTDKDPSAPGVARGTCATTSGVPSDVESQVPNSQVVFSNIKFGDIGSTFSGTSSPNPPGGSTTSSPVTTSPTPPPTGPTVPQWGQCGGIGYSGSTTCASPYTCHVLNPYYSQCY
As to the kind of experiment: PASC hydrolysis, reducing sugar. Conditions: PASC 10 g/L, 0.2 µM enzyme, pH 5.0, 50 °C, 60 min; may be deactivation.

The target of test [2] is T2, PcCel7C (Phanerodontia chrysosporium, UniProt P13860).
T2 sequence (P13860 19-516): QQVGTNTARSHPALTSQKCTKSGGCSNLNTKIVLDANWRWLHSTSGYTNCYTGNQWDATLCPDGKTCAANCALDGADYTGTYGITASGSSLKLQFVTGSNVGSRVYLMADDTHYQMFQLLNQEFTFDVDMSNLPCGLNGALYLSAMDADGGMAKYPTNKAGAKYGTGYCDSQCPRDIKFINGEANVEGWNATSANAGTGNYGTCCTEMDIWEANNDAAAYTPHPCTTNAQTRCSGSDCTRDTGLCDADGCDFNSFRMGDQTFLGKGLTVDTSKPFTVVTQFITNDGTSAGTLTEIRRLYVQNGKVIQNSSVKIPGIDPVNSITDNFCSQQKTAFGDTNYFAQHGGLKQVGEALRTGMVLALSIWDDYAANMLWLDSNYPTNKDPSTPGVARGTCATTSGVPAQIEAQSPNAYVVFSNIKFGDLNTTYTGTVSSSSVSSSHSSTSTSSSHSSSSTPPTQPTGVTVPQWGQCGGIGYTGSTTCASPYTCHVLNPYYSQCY
As to the kind of experiment: PASC hydrolysis, reducing sugar. The conditions noted are these: PASC 10 g/L, 0.2 µM enzyme, pH 5.0, 50 °C, 60 min; may be deactivation.

In test [3] the target is T3, TrCel7A (Trichoderma reesei, UniProt P62694).
T3 sequence (P62694 18-513): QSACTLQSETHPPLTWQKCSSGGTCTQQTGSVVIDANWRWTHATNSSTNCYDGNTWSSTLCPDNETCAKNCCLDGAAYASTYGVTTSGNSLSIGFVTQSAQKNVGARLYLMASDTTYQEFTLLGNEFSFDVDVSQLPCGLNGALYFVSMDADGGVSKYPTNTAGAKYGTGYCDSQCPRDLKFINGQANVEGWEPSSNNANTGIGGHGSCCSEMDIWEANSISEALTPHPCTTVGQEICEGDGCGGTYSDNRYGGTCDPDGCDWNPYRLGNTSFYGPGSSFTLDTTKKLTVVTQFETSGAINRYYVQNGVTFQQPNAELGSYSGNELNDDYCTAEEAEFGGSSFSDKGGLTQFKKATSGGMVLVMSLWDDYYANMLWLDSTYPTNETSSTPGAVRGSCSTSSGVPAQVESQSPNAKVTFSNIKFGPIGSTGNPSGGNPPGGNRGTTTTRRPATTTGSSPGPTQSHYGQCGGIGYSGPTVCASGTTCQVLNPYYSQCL
As to the kind of experiment: inhibition of pNPC hydrolysis. Conditions: 1 mM pNPC, 1.45 µM enzyme, pH 5.0, 50 °C, 20 min.

The target of test [4] is T1, PcCel7D. Put plainly: inhibition of pNPC hydrolysis. Conditions: 1 mM pNPC, 1.45 µM enzyme, pH 5.0, 50 °C, 20 min.
For test [5], the target named is T2, PcCel7C. Put plainly: inhibition of pNPC hydrolysis. Conditions: 1 mM pNPC, 1.45 µM enzyme, pH 5.0, 50 °C, 20 min.
For test [6], the target named is T2, PcCel7C. Put plainly: PASC hydrolysis, reducing sugar. Conditions: PASC 10 g/L, 0.2 µM enzyme, pH 5.0, 50 °C, 60 min; may be deactivation. The source holds these as a separate data set.
The target in test [7] is T1, PcCel7D. As to the kind of experiment: PASC hydrolysis, reducing sugar. Conditions: PASC 10 g/L, 0.2 µM enzyme, pH 5.0, 50 °C, 60 min; may be deactivation. This is another data set of the same source.
In test [8] the target is T2, PcCel7C. As to the kind of experiment: inhibition of pNPC hydrolysis. Conditions: 1 mM pNPC, 1.45 µM enzyme, pH 5.0, 50 °C, 20 min; product inhibition.
Test [9] deals with T3, TrCel7A. Put plainly: inhibition of pNPC hydrolysis. The conditions noted are these: 1 mM pNPC, 1.45 µM enzyme, pH 5.0, 50 °C, 20 min; product inhibition.
For test [10], the target named is T1, PcCel7D. As to the kind of experiment: inhibition of pNPC hydrolysis. Conditions: 1 mM pNPC, 1.45 µM enzyme, pH 5.0, 50 °C, 20 min; product inhibition.

`O=C(O)c1c(O)cccc1O` [compound 12, 2,6-dihydroxybenzoic acid]: the “% reduction in activity at 30 mM” value stood at 67% on PcCel7D [1] and 87% at PcCel7C [2].

For `OC[C@H]1OC(O)[C@H](O)[C@@H](O)[C@@H]1O` (stereo partly shown) [glucose], the figures for the “% loss of activity at 1.5 M” value on TrCel7A [3], on PcCel7D [4] and on PcCel7C [5] were 30%, 67% and 67%, respectively.

For `O=C(O)c1ccc(O)cc1` [compound 3, 4-hydroxybenzoic acid], the “% decrease in activity at 30 mM” value is “the activity of PcCBHs exhibited susceptibility to the same LRCs, following a comparable pattern” on PcCel7C [6] and “the activity of PcCBHs exhibited susceptibility to the same LRCs, following a comparable pattern” on PcCel7D [7].

Turning to `OC[C@H]1O[C@@H](O[C@H]2[C@H](O)[C@@H](O)C(O)O[C@@H]2CO)[C@H](O)[C@@H](O)[C@@H]1O` (stereo partly shown) [cellobiose], the “% reduction in activity at 1 mM” value at PcCel7C [8], on TrCel7A [9] and on PcCel7D [10] was ~ 50% throughout.
